Laboratory results reported in US20120077836A1, “METHODS OF ADMINISTERING (4AR,10AR)-1-N-PROPYL-1,2,3,4,4A,5,10,10A-OCTAHYDROBENZO [G] QUINOLINE-6,7-DIOL AND RELATED COMPOUNDS ACROSS THE ORAL MUCOSA, THE NASAL MUCOSA OR THE SKIN AND PHARMACEUTICAL COMPOSITIONS THEREOF” (priority 2009, published 2012).
Values joined by “and” are separate entries in the source; they are usually repeats but may differ in a detail not shown here. Identical values can stand only once. Counter-ions that a name gives are not always drawn. Like-named read-outs stand apart in the source and are kept apart here.

Experiment: Intravenous and buccal pharmacokinetic study in the minipig
Format: in vivo
Procedure: The test article was compound 10. The vehicles for the test article were Sterile saline (0.9% NaCl) (intravenous administration) supplied by Baxter, Norfolk or Ascorbic acid reconstituted in Water for Injection (buccal administration) supplied by VWR International, Leicestershire. Formulations were prepared on the day of dosing.
Three male minipigs of the Göttingen ApS strain were supplied by Ellegaard Göttingen, Dalmose, Denmark. At initiation of dosing, animals were approximately 15 to 17 weeks old. Each animal was dosed once on three separate occasions according to the following study design:
Animals were deprived of food overnight and anaesthetised with isoflurane in oxygen (administered by facemask), prior to each dosing occasion.
Intravenous administrations were performed by slow manual injection via a temporary catheter placed in the ear vein whilst under anaesthesia, animals were allowed to recover from the anaesthesia immediately after dosing. Whilst anaesthetised, a catheter was inserted into the jugular vein and secured in place for the purpose of blood collection. The catheter was filled with heparin (250 iu/mL in 0.9% sodium chloride). The exterior portion of the catheter was routed from the ventral neck to the dorsum of the minipig and protected by bandaging. The distal end of the catheter was capped and placed in a re-sealable pouch within the bandage. The jugular catheter was retained in place and flushed with heparinised saline every 24 hours.
Buccal administrations were performed by applying the test formulation to the buccal membrane for 5 minutes while the animal was anaesthetised. Any residual formulation remaining in the mouth after the 5 minute application was […]. Animals were allowed to recover from the anaesthesia immediately after dosing.
, all animals on Day 3 following buccal administration of a low dose and all animals on Day 5 following buccal administration of a high dose for pharmacokinetic analysis. The samples (1.0 mL) were collected from the jugular vein (via catheter) into tubes containing EDTA anticoagulant. Prior to addition of the blood sample, 100 microL of a stabiliser (2% beta-mercaptoethanol containing 20 mg/mL ascorbic acid) was added to each pot. The stabiliser was prepared fresh on each day of sample collection. Samples were collected as follows: • Day 1: 5, 10, 15, 30 and 45 minutes and 1, 2, 4, 6, 8, 12 and 16 hours post-dose • Day 3: pre-dose and at 5, 10, 15, 30 and 45 minutes and 1, 2, 4, 6, 8, 12, 16 and 24 hours post-dose • Day 5: pre-dose and at 5, 10, 15, 30 and 45 minutes and 1, 2, 4, 6, 8, 12, 16 and 24 hours post-dose
The times of the blood sampling were generally adhered to. The greatest deviation from the scheduled timepoints was one minute late at the 5 minute timepoint on Day 3. The blood samples were centrifuged within one hour of sample collection and the resultant plasma was frozen prior to analysis.
The plasma concentrations of compound 10 were determined after solid phase extraction of the plasma samples followed by high performance liquid chromatography with tandem mass spectrometric detection (LC-MS/MS) using a sample volume of about 100 microL.
Internal standard solution, containing the internal standard of compound 10 was added to thawed plasma samples (100 microL aliquot). The SPE plate (Oasis HLB, 10 mg) was conditioned with methanol (500 microL) followed by water (500 microL). The sample (approx. 500 microL aliquot) was transferred to the pre-conditioned SPE plate. The sample was then passed through the cartridge, which was then washed with water:methanol (90:10 v/v, 0.5 mL). The sample was then eluted into a fresh 96 well polypropylene collection plate with 20 mM ammonium formate (aq): acetonitrile: formic acid (50:50:2 v/v/v, 250 microL). The organic component of the eluted samples was then evaporated under a gentle stream of nitrogen until approximately 50% of the original volume was remaining. […]

[1] = IV 0.0025 mg/kg, individual animals 1-3, hydrobromide, 0.0025 mg/kg
[2] = buccal 0.010 mg/kg, individual animals 1-3, hydrobromide
[3] = buccal 40 μg/kg versus 10 μg/kg, males
[4] = buccal 0.040 mg/kg, individual animals 1-3, hydrobromide
[5] = buccal, 0.010 to 0.040 mg/kg (4-fold dose increase)

CCCN1CCC[C@@H]2Cc3c(ccc(O)c3O)C[C@H]21 [compound 10, (4aR,10aR)-1-n-Propyl-1,2,3,4,4a,5,10,10a-octahydro-benzo[g]quinoline-6,7-diol hydrobromide]
Plasma concentration Day 1 Hour 0.08 [1]: 1720 pg/mL and 1920 pg/mL
Plasma concentration Day 1 Hour 0.17 [1]: 976 pg/mL and 1260 pg/mL
Plasma concentration Day 1 Hour 0.25 [1]: 1170 pg/mL and 828 pg/mL
Plasma concentration Day 1 Hour 0.5 [1]: 922 pg/mL and 536 pg/mL
Plasma concentration Day 1 Hour 0.75 [1]: 656 pg/mL and 667 pg/mL
Plasma concentration Day 1 Hour 1 [1]: 432 pg/mL and 451 pg/mL
Plasma concentration Day 1 Hour 2 [1]: 196 pg/mL and 352 pg/mL
Plasma concentration Day 1 Hour 4 [1]: 76.3 pg/mL and 115 pg/mL
Plasma concentration Day 1 Hour 6 [1]: 56.2 pg/mL and 75.6 pg/mL
Plasma concentration Day 1 Hour 8 [1]: 33.9 pg/mL and 40.7 pg/mL
Plasma concentration Day 1 Hour 12 [1]: 29.9 pg/mL and 20.9 pg/mL
Plasma concentration Day 1 Hour 16 (IV 0.0025 mg/kg, individual animals 1-3, values below LLOQ 10 pg/mL estimated, hydrobromide, 0.0025 mg/kg): 9.25 pg/mL and 10.1 pg/mL
time of maximum plasma concentration (IV bolus 0.0025 mg/kg, first sampling time): 5 min
time of maximum plasma concentration (buccal 0.010 mg/kg and 0.040 mg/kg): about 0.75 hours
Plasma concentration Day 1 Hour 4 [2]: 98.3 pg/mL and 91.7 pg/mL and 206 pg/mL
Plasma concentration Day 1 Hour 6 [2]: 84.5 pg/mL and 26.5 pg/mL and 75.8 pg/mL
Plasma concentration Day 1 Hour 8 [2]: 46.7 pg/mL and 26.1 pg/mL and 55.4 pg/mL
Plasma concentration Day 1 Hour 12 [2]: 26.8 pg/mL and 23.4 pg/mL and 157 pg/mL
Plasma concentration Day 3 Hour 0.08 [2]: 16.1 pg/mL and 379 pg/mL and 55.2 pg/mL
Plasma concentration Day 3 Hour 0.17 [2]: 117 pg/mL and 105 pg/mL and 221 pg/mL
Plasma concentration Day 3 Hour 0.25 [2]: 134 pg/mL and 185 pg/mL and 622 pg/mL
Plasma concentration Day 3 Hour 0.5 [2]: 758 pg/mL and 556 pg/mL
Plasma concentration Day 3 Hour 0.75 [2]: 1100 pg/mL and 964 pg/mL
Plasma concentration Day 3 Hour 1 [2]: 791 pg/mL and 817 pg/mL
Plasma concentration Day 3 Hour 2 [2]: 501 pg/mL and 372 pg/mL
Plasma concentration Day 1 Hour 24 (buccal 0.010 mg/kg, individual animals 1-3, values below LLOQ 10 pg/mL estimated, hydrobromide): <2.00 pg/mL and 4.94 pg/mL and 26.1 pg/mL
Increase in AUC0-∞ (first line) [3]: 12.1 fold
Increase in AUC0-∞ (second line) [3]: 18.9 fold
increase in Cmax [3]: 11.9 fold
Plasma concentration Day 1 Hour 4 [4]: 2560 pg/mL and 746 pg/mL and 2490 pg/mL
Plasma concentration Day 1 Hour 6 [4]: 781 pg/mL and 278 pg/mL and 1730 pg/mL
Plasma concentration Day 1 Hour 8 [4]: 445 pg/mL and 212 pg/mL and 910 pg/mL
Plasma concentration Day 1 Hour 12 [4]: 272 pg/mL and 139 pg/mL and 1400 pg/mL
Plasma concentration Day 1 Hour 16 [4]: 142 pg/mL and 58.4 pg/mL and 677 pg/mL
Plasma concentration Day 1 Hour 24 [4]: 44.3 pg/mL and 78.9 pg/mL and 233 pg/mL
Plasma concentration Day 5 Hour 0.08 [4]: 2750 pg/mL and 695 pg/mL and 427 pg/mL
Plasma concentration Day 5 Hour 0.17 [4]: 6060 pg/mL and 1930 pg/mL and 1820 pg/mL
Plasma concentration Day 5 Hour 0.25 [4]: 9.14 ng/mL and 3.33 ng/mL and 3.89 ng/mL
Plasma concentration Day 5 Hour 0.5 [4]: 8.23 ng/mL and 5.31 ng/mL
Plasma concentration Day 5 Hour 0.75 [4]: 10.7 ng/mL and 10.5 ng/mL
Plasma concentration Day 5 Hour 1 [4]: 10.8 ng/mL and 9.58 ng/mL
Plasma concentration Day 5 Hour 2 [4]: 8.68 ng/mL and 6.34 ng/mL and 3.88 ng/mL
increase in AUC0-∞ [5]: 12 fold
increase in Cmax [5]: 12 fold
concentration at 0.5 h (male, Göttingen, in vivo, 0.01 mg/kg, buccal 0.010 mg/kg, individual animals 1-3, read-out: Plasma concentration Day 3 Hour 0.5): 0.943 ng/mL
concentration at 0.75 h (male, Göttingen, in vivo, 0.01 mg/kg, buccal 0.010 mg/kg, individual animals 1-3, read-out: Plasma concentration Day 3 Hour 0.75): 1.07 ng/mL
concentration at 1 h (male, Göttingen, in vivo, 0.01 mg/kg, buccal 0.010 mg/kg, individual animals 1-3, read-out: Plasma concentration Day 3 Hour 1): 1 ng/mL
concentration at 2 h (male, Göttingen, in vivo, 0.01 mg/kg, buccal 0.010 mg/kg, individual animals 1-3, read-out: Plasma concentration Day 3 Hour 2): 0.589 ng/mL
concentration at 16 h (male, Göttingen, in vivo, 0.01 mg/kg, buccal 0.010 mg/kg, individual animals, below LLOQ 10 pg/mL, estimated, read-out: Plasma concentration Day 1 Hour 16): 6.91 pg/mL
concentration at 16 h (male, Göttingen, in vivo, 0.01 mg/kg, buccal 0.010 mg/kg, mean (one animal only), read-out: Plasma concentration Day 1 Hour 16, Mean): 6.91 pg/mL
concentration at 4 h (male, Göttingen, in vivo, 0.01 mg/kg, buccal 0.010 mg/kg, mean, read-out: Plasma concentration Day 1 Hour 4, Mean): 0.132 ng/mL
concentration at 6 h (male, Göttingen, in vivo, 0.01 mg/kg, buccal 0.010 mg/kg, mean, read-out: Plasma concentration Day 1 Hour 6, Mean): 0.0623 ng/mL
concentration at 8 h (male, Göttingen, in vivo, 0.01 mg/kg, buccal 0.010 mg/kg, mean, read-out: Plasma concentration Day 1 Hour 8, Mean): 0.0427 ng/mL
concentration at 12 h (male, Göttingen, in vivo, 0.01 mg/kg, buccal 0.010 mg/kg, mean, read-out: Plasma concentration Day 1 Hour 12, Mean): 0.0691 ng/mL
concentration at 24 h (male, Göttingen, in vivo, 0.01 mg/kg, buccal 0.010 mg/kg, mean, read-out: Plasma concentration Day 1 Hour 24, Mean): 0.0155 ng/mL
concentration at 0.08 h (male, Göttingen, in vivo, 0.01 mg/kg, buccal 0.010 mg/kg, mean, read-out: Plasma concentration Day 3 Hour 0.08, Mean): 0.15 ng/mL
